Laboratory results reported in patent publication US20050203119A1, “Dihydropyridine compounds for treating or preventing metabolic disorders” (priority 2003, published 2005).

Key:
male ob/ob mice = test: Oral glucose tolerance test in glucose-loaded ob/ob mice (Example 114, FIG. 1); format: in vivo, mouse
Description: Blood glucose was measured at 0, 30, 120 and 240 min post-glucose loading. Metformin and rosiglitazone were used as references.

[1] = system: male db/db mice (BKS.Cg-m+/+Lepr db/J); test: Intraperitoneal glucose tolerance test (IPGTT) in db/db mice (Example 122, FIGS. 3 and 5); format: in vivo, mouse; settings: Mus musculus, po, 0.75 h, read-out: Ave. % Change in Glucose Intolerance at +45 min
Description: Six to eight week old, male db/db mice (BKS.Cg-m+/+Lepr^db/J; stock number 000642), homozygous for a mutation in the gene encoding the leptin receptor, were purchased from The Jackson Laboratory (Bar Harbor, Me. USA). Animals were singly housed in conventional caging on a 12 hr/12 hr light/dark cycle, acclimated for at least five days prior to use and fed normal laboratory chow ad libitum between experiments. Studies were conducted with animals between seven and fourteen weeks of age. Animals were used for a maximum of five consecutive studies, with a minimum recovery period of five days between studies.
To perform an IPGTT or OGTT, db/db mice were fasted overnight beginning on day 0 at −17.5 to −18.5 hrs relative to the glucose dose on day 1 (all time points below are stated relative to the time of an intraperitoneal or oral glucose dose on day 1). At −4.5 hrs, animals were weighed, blood was collected by tail vein lancing and fasted blood glucose levels determined using a hand-held glucometer (MediSense Precision Xtra or LifeScan OneTouch Ultra). Animals were randomized into dosing groups of 6-7 animals, with each group having a similar average fasted blood glucose level. At −3 hr, animals were dosed with vehicle alone, a test compound or metformin by oral gavage at 5 ml/kg body weight. […] Blood glucose levels were determined as above at −45 min and +45 min, and also +90 min and/or +150 min (see FIG. 3 and the Table in this section). Alternatively, blood glucose levels were determined at −30 min, +30 min, +60 min and +120 min (see FIGS. 4 and 5).
Compound doses were adjusted to be the molar equivalents of 50 mg/kg of Compound 39. The percent change in blood glucose between −45 min and a time point, y, after glucose dosing (e.g., +45 min, +150 min, ect.) was calculated for each animal using formula 1: [formula]
The percent change in blood glucose between −45 min and a time point, y, after glucose dosing was calculated for each animal using formula 1.
Average percent change in glucose intolerance was calculated using Formula 2, as noted in the table below. […]

db/db mice = test: Combination studies of rosiglitazone or metformin with Compound 39, 7 days (Example 121); format: in vivo, mouse
Description: Serum glucose levels in the pre-and post-treatment were determined enzymatically (Mutaratase-GOD). Post-treatment serum glucose values were expressed in percentage of respective pre-treatment values. Percentage reductions were expressed in percentage of pre-treatment values of test substance relative to percentage of respective pre-treatment values of vehicle. All percentages were calculated and unpaired; Student's t test was then applied to establish significant difference between the test compound-treated and vehicle control groups. Differences are considered significant at P<0.05.

primary rat hepatocytes = test: In vitro cytotoxicity study on primary rat hepatocytes (MTS); format: cell-based; settings: Hepatocyte, 20 hours treatment with 0.4, 2, 10 and 50 μM, absorbance at 490 nm, read-out: Average EC50 (hepatocytes from at least 2 rats)
Description: Male SD rats having body weights of approximately 200 g were used for the study. Hepatocytes were freshly isolated and seeded with 15,000 cells/well in 96 wells coated with 100 μl collagen. The hepatocytes were cultured for 3-4 hours with HCM Bulletkit medium (Clonetics #CC-3198) then treated with 0.4 μM, 2 μM, 10 μM and 50 μM of a test compound for 20 hours. Flepatocytes were then incubated with MTS reagent (Promega #G5421) for 2-3 hours and absorbance in each well at […] was measured to determine the number of living cells in each well (the absorbance at 490 nm is directly proportional to the number of living cells in the well). The EC50 for each test compound was calculated with the Excel Xlfit wizard program based on the optical density values compared with vehicle treated cells.

C57BLKS/J-m+/+Lepr db = test: Glucose reduction, Compound 36 in combination with rosiglitazone, db/db mice, 6 days (Example 117); format: in vivo, mouse; settings: for Serum Glucose % Normalized Reduction: relative to vehicle
Description: C57BLKS/J-m+/+Lepr db were obtained from the Institute for Animal Reproduction (IAR, Japan), and randomized for equivalent mean blood glucose on day 0 (n=8/group). One group served as the vehicle control (0.5% methyl cellulose). […] Group 3 received 0.5 mg/kg rosiglitazone. […] All agents were administered once daily for 6 consecutive days starting on day 1. […] Post-treatment serum glucose value was expressed as percent pre-treatment from respective pre-treatment values, and percent reduction relative to vehicle control was calculated by subtracting from the percent pre-treatment of vehicle control.

Male SD rats = settings: rat, in vivo
Description: Male SD rats weighing 350-420 g were anesthetized with 2-3% isoflurane. The femoral artery and vein were catheterized and connected to a mean arterial blood pressure (MAP) and heart rate (HR) monitor and a continuous intravenous infusion pump. Under anesthesia, MAP and HR were recorded 10-20 minutes prior to and during the continuous intravenous infusion of test compounds for 60-70 minutes. The infusion rate, 0.14-0.16 ml/kg/minute, was determined on the basis of vehicle tolerance. The infusion doses, 1.0-1.25 mg/kg/minute, were selected, depending upon the solubility of the compound and effects on MAP and HR of the positive control compounds at the lethal dose. The maximal effective dose or lethal dose of test compounds were determined accordingly.

[2] = system: NIDDM male mice (C57BLKS/J-m+/+Lepr db); test: 7 day baseline glucose test in db/db mice (Example 119); format: in vivo, mouse; settings: for Serum Glucose % Pre-Treatment Baseline: 3 hours after dose
Description: Non-insulin dependent diabetic mellitus (NIDDM) male mice (C57BLKS/J-m+/+Lepr db), weighing 50±5 g and 9-10-week old, were used. The animals were housed in Individually Ventilated Cages Racks (IVC Racks) throughout the experiment and all animals were allowed free access to sterilized Lab chow and sterilized distilled water. Compounds 39, 41 and 64 at 50 mg/kg as well as vehicle (0.5% Methylcellulose) were administered orally once daily for 7 consecutive days to test animals after the first blood sampling (pre-treatment). The post-treatment blood samples were withdrawn from the orbital sinus at 3 hours after administration of daily dose on day 3 and on day 7. Serum glucose levels in the pre- and post-treatment were determined by enzymatic (Mutaratase-GOD) methods. Post-treatment serum glucose values were expressed in percentage of respective pre-treatment values. Percentage reductions were expressed in percentage of pre-treatment values of test substance relative to percentage of pre-treatment values of vehicle. All percentages were calculated and unpaired; Student's t test was then applied to establish significant difference between the test compound-treated and vehicle control groups. Differences are considered significant at P<0.05.

[3] = system: C57BLKS/J-m+/+Lepr db male animals; test: Glucose reduction by Compound 9 in db/db mouse model (Example 112); format: in vivo; settings: 3.5 hours after administration
Description: C57BLKS/J-m+/+Lepr db male animals (8 weeks old) were purchased from the Jackson Laboratory (Bar Harbor, Me.) in this study. All animals were acclimated for at least one week, and randomized for equivalent mean blood glucose on day 0. Animals were divided into either vehicle or treatment groups (n=8/group). Compound 9 was formulated in 0.5% methylcellulose (ps400) and administered by oral gavage at 50 mg/kg once daily for 7 consecutive days. Blood glucose was monitored using One Touch Basic glucose monitor (Abbott) 3.5 hours after administration of test compound on day 3 and 7.

[4] = Day 3, metformin 150 mg/kg orally daily
[5] = Day 7, metformin 150 mg/kg orally daily
[6] = Day 3, 50 mg/kg orally once daily
[7] = Day 7, 50 mg/kg orally once daily
[8] = Day 3, rosiglitazone 0.5 mg/kg orally daily
[9] = Day 7, rosiglitazone 0.5 mg/kg orally daily

## CN(C)C(=N)N=C(N)N [metformin]
Male ob/ob mice; metformin 100 mg/kg (FIG. 1), glucose 3 g/kg, fasted ob/ob mice
  blood glucose after oral glucose loading: approximately 200 mg/dl
[1]
  change in vivo at 150 mg/kg: -48.7%
db/db mice; [4]
  Serum Glucose % Pre-Treatment Baseline: 68.5 ± 3.7%
  serum glucose % Reduction relative to vehicle: (26.4) %
db/db mice; [5]
  Serum Glucose % Pre-Treatment Baseline: 72.2 ± 5.7%
  serum glucose % Reduction relative to vehicle: (28.7) %

## CCOC(=O)C1=C(COCCN)NC2=C(C(=O)CC(C)(C)C2)[C@H]1c1cccnc1 [39 R-enantiomer, (+)-(R)-2-(2-Amino-ethoxymethyl)-7,7-dimethyl-5-oxo-4-pyridin-3-yl-1,4,5,6,7,8-hexahydro-quinoline-3-carboxylic acid ethyl ester]
Primary rat hepatocytes
  EC50: > 50 µM

## CCOC(=O)C1=C(COCCN)N(C)C2=C(C(=O)CC(C)(C)C2)C1c1cccnc1 (stereo not shown) [Compound 66, 2-(2-Amino-ethoxymethyl)-1,7,7-trimethyl-5-oxo-4-pyridin-3-yl-1,4,5,6,7,8-hexahydro-quinoline-3-carboxylic acid ethyl ester]
Primary rat hepatocytes
  EC50: > 50 µM

## CCOC(=O)C1=C(COCCN)NC2=C(C(=O)CC(C)(C)C2)C1c1ccc(C)o1 (stereo not shown) [Compound 206, 2-(2-Amino-ethoxymethyl)-7,7-dimethyl-4-(5-methyl-furan-2-yl)-5-oxo-1,4,5,6,7,8-hexahydro-quinoline-3-carboxylic acid ethyl ester]
Primary rat hepatocytes
  EC50: > 50 µM

## CCOC(=O)C1=C(COCCN)NC2=C(C(=O)CC(C)(C)C2)[C@@H]1c1ccccc1Cl [Compound 36, S-(−)-2-(2-amino-ethoxymethyl)-4-(2-chloro-phenyl)-7,7-dimethyl-5-oxo-1,4,5,6,7,8-hexahydro-quinoline-3-carboxylic acid ethyl ester; complex with benzenesulfonic acid]
Male ob/ob mice; 25 mg/kg orally, glucose 3 g/kg, fasted ob/ob mice
  blood glucose after oral glucose loading: approximately 200 mg/dl
C57BLKS/J-m+/+Lepr db; Day 3, Compound 36 10 mg/kg
  Serum Glucose % Pre-Treatment Baseline: 103.0 ± 2.4%
  Serum Glucose % Normalized Reduction: (2.6) %
C57BLKS/J-m+/+Lepr db; Day 3, Compound 36 25 mg/kg
  Serum Glucose % Pre-Treatment Baseline: 100.3 ± 2.8%
  Serum Glucose % Normalized Reduction: (5.3) %
C57BLKS/J-m+/+Lepr db; Day 6, Compound 36 10 mg/kg
  Serum Glucose % Pre-Treatment Baseline: 100.7 ± 4.6%
  Serum Glucose % Normalized Reduction: (7.2) %
C57BLKS/J-m+/+Lepr db; Day 6, Compound 36 25 mg/kg
  Serum Glucose % Pre-Treatment Baseline: 99.7 ± 5.4%
  Serum Glucose % Normalized Reduction: (8.2) %

## CCOC(=O)C1=C(COCCN)NC(C)=C(C(=O)OC)C1c1ccccc1Cl (stereo not shown) [Amlodipine, amlodipine, reference compound]
Male SD rats
  Lethal Dose: ˜12.7 mg/kg

## CC1(C)CC(=O)C2=C(C1)NC(COCCN)=C(C#N)C2c1ccccc1Cl (stereo not shown) [Compound 41, 2-(2-Amino-ethoxymethyl)-4-(2-chloro-phenyl)-7,7-dimethyl-5-oxo-1,4,5,6,7,8-hexahydro-quinoline-3-carbonitrile]
[2]; [6]
  serum glucose % Reduction relative to vehicle: (2) %
  Serum Glucose % Pre-Treatment Baseline: 93.3%
[2]; [7]
  serum glucose % Reduction relative to vehicle: (6) %
  Serum Glucose % Pre-Treatment Baseline: 94.1%

## CCOC(=O)C1=C(COCCN)NC2=C(C(=O)CC(C)(C)C2)C1c1ccccc1O (stereo not shown) [Compound 64, 2-(2-Amino-ethoxymethyl)-4-(2-hydroxy-phenyl)-7,7-dimethyl-5-oxo-1,4,5,6,7,8-hexahydro-quinoline-3-carboxylic acid ethyl ester]
Primary rat hepatocytes
  EC50: > 50 µM
[2]; [6]
  serum glucose % Reduction relative to vehicle: (10) %
  Serum Glucose % Pre-Treatment Baseline: 85.9%
[2]; [7]
  serum glucose % Reduction relative to vehicle: (12) %
  Serum Glucose % Pre-Treatment Baseline: 88.6%

## CCOC(=O)C1=C(COCCN)NC2=C(C(=O)CC(C)(C)C2)C1c1ccccc1F (stereo not shown) [Compound 12, 2-(2-amino-ethoxymethyl)-4-(2-fluoro-phenyl)-7,7-dimethyl-5-oxo-1,4,5,6,7,8-hexahydro-quinoline-3-carboxylic acid ethyl ester]
Primary rat hepatocytes
  EC50: > 50 µM

## CCOC(=O)C1=C(COCCN)NC2=C(C(=O)CC(C)(C)C2)C1c1ccccc1OC (stereo not shown) [Compound 16, 2-(2-Amino-ethoxymethyl)-4-(2-methoxy-phenyl)-7,7-dimethyl-5-oxo-1,4,5,6,7,8-hexahydro-quinoline-3-carboxylic acid ethyl ester]
Primary rat hepatocytes
  EC50: > 50 µM

## CC1=C(C#N)C(C2CC2)C2=C(CC(C)(C)CC2=O)N1 (stereo not shown) [Compound 222, 2,7,7-Trimethyl-4-cyclopropyl-5-oxo-1,4,5,6,7,8-hexahydro-quinoline-3-carbonitrile]
Primary rat hepatocytes
  EC50: > 50 µM

## CCOC(=O)C1=C(COCCN)NC2=C(C(=O)CC(C)(C)C2)C1c1ccccn1 (stereo not shown) [Compound 9, 2-(2-amino-ethoxymethyl)-7,7-dimethyl-5-oxo-4-pyridin-2-yl-1,4,5,6,7,8-hexahydro-quinoline-3-carboxylic acid ethyl ester]
Primary rat hepatocytes
  EC50: > 50 µM
[3]; day 3, 50 mg/kg oral gavage once daily
  percent normalized reduction in blood glucose relative to vehicle control: 13.6%
[3]; day 7, 50 mg/kg oral gavage once daily
  percent normalized reduction in blood glucose relative to vehicle control: 21.1%

## CCOC(=O)C1=C(C)NC2=C(C(=O)CC(C)(C)C2)C1c1cccnc1 (stereo not shown) [Compound 202, 2,7,7-Trimethyl-4-(pyrid-3-yl)-5-oxo-1,4,5,6,7,8-hexahydro-quinoline-3-carboxylic acid ethyl ester]
Primary rat hepatocytes
  EC50: > 50 µM

## CN(CCOc1ccc(CC2SC(=O)NC2=O)cc1)c1ccccn1 (stereo not shown) [rosiglitazone, reference compound]
Male ob/ob mice; rosiglitazone 1 mg/kg (FIG. 1), 4 hours post-glucose loading
  blood glucose after oral glucose loading: ~300 mg/dL
C57BLKS/J-m+/+Lepr db; Day 3, rosiglitazone 0.5 mg/kg
  Serum Glucose % Pre-Treatment Baseline: 90.3 ± 3.1%
  Serum Glucose % Normalized Reduction: (15.3) %
C57BLKS/J-m+/+Lepr db; Day 6, rosiglitazone 0.5 mg/kg
  Serum Glucose % Pre-Treatment Baseline: 79.1 ± 1.9%
  Serum Glucose % Normalized Reduction: 28.8%
C57BLKS/J-m+/+Lepr db; Day 6, rosiglitazone 0.5 mg/kg, listed as Rosiglitazone
  Serum Glucose % Normalized Reduction: (28.8) %
db/db mice; [8]
  Serum Glucose % Pre-Treatment Baseline: 72.2 ± 6.5%
  serum glucose % Reduction relative to vehicle: (22.4) %
db/db mice; [9]
  Serum Glucose % Pre-Treatment Baseline: 61.2 ± 6.6%
  serum glucose % Reduction relative to vehicle: (39.5) %

## CCOC(=O)C1=C(COCCN)NC2=C(C(=O)CC(C)(C)C2)C1c1ccco1 (stereo not shown) [Compound 96, 2-(2-Amino-ethoxymethyl)-4-furan-2-yl-7,7-dimethyl-5-oxo-1,4,5,6,7,8-hexahydro-quinoline-3-carboxylic acid ethyl ester]
Primary rat hepatocytes
  EC50: > 50 µM
